The values that follow come from patent publication US11090304B2 (Amgen Inc., priority 2018, dated 2021).

Molecules are shown by their SMILES. Where two headings read alike, the source gives them in different places. A value given as a limit tells only on which side of the number the result lay.

Test [1] has as its target GDP-bound KRAS protein (aa 1-169), containing both G12C and C118A amino acid substitutions (Homo sapiens, UniProt P01116, C118A/G12C). Put plainly: Coupled nucleotide exchange assay (SOS-mediated, AlphaScreen). It counts as biochemical. The note with it: for Coupled exchange IC50 (2 h): 2 h compound pre-incubation. In general terms: Bead proximity is the source of the signal in Alpha formats.

Test [2] relates to Phosphorylation of ERK1/2 in MIA PaCa-2 cells. The experiment in a line: Phospho-ERK1/2 MSD assay in MIA PaCa-2 cells. It counts as cell-based. Summed up:
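In the procedure, cells were plated a day ahead at 25,000 per well. Next, a dilution series of compound in growth medium was added for 2 or 4 h. EGF (10 ng/mL) stimulation for 10 min preceded washing and RIPA lysis. Lysate phospho-ERK1/2 was read by MSD, with IC50 derived by 4-parameter logistic analysis.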

Test [3] has as its system Phosphorylation of ERK1/2 in A549 cells. Put plainly: Phospho-ERK1/2 MSD assay in A549 cells. The conditions noted are these: Homo sapiens. It counts as cell-based. As to the method:
For compounds in Table 89, the following assay conditions were employed:
Phospho-ERK1/2 MSD Assay:
Sixteen hours prior to compound treatment, MIA PaCa-2 or A549 cells were seeded in 96-well cell culture plates at a density of 25,000 cells/well and incubated at 37° C., 5% CO2. A compound dose-response titration was diluted in growth media, added to appropriate wells of a cell culture plate, and then incubated at 37° C., 5% CO2 for 2 or 4 hours (see Table 15). Following compound treatment, cells were stimulated with 10 ng/mL EGF (Roche 11376454001) for 10 min, washed with ice-cold Dulbecco's phosphate-buffered saline, no Ca^2+ or Mg^2+ (ThermoFisher Scientific 14190144), and then lysed in RIPA buffer (50 mM Tris-HCl pH 7.5, 1% Igepal, 0.5% sodium deoxycholate, 150 mM NaCl, and 0.5% sodium dodecyl sulfate) containing protease inhibitors (Roche 4693132001) and phosphatase inhibitors (Roche 4906837001). Phosphorylation of ERK1/2 in compound-treated lysates was assayed using Phospho-ERK1/2 Whole Cell Lysate kits (Meso Scale Discovery K151DWD) according to the manufacturer's protocol. Assay plates were read on a Meso Scale Discovery Sector Imager 6000, and data were analyzed using a 4-parameter logistic model to calculate IC50 values.

The mark [4] stands for this setting: Homo sapiens, MIA PaCa-2, 2 h, read-out: p-ERK IC50 (2 h; MIA PaCa-2), 2 h compound treatment.
The mark [5] stands for this setting: Homo sapiens, MIA PaCa-2, 4 h, read-out: p-ERK IC50 (4 h; MIA PaCa-2), 4 h compound treatment.
Setting [6] is: A549, 2 h, read-out: p-ERK IC50 (2 h; A549), 2 h compound treatment.
Where [7] appears, read: A549, 4 h, read-out: p-ERK IC50 (4 h; A549), 4 h compound treatment.

For orientation: IC50 means the point on the concentration scale where inhibition reaches its midpoint.

GDP-bound KRAS protein (aa 1-169), containing both G12C and C118A amino acid substitutions, sequence (P01116 1-169 isoform P01116-2 G12C/C118A): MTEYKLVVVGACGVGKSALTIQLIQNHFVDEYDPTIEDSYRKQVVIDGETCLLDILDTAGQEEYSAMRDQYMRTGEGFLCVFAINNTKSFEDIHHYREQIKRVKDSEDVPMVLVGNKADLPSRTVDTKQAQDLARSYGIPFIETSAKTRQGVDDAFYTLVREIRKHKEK

As for `C=CC(=O)N1CCN(c2nc(=O)n(CC3(C(F)(F)F)CC3)c3nc(-c4c(O)cccc4F)c(Cl)cc23)CC1` [Example 60-3, 6-chloro-7-(2-fluoro-6-hydroxyphenyl)-4-(4-(2-propenoyl)-1-piperazinyl)-1-((1-(trifluoromethyl)cyclopropyl)methyl)pyrido[2,3-d]pyrimidin-2(1H)-one], the “Coupled exchange IC50 (5 min)” value in test [1] (5 min compound pre-incubation) turned out to be 1.02 µM. Moreover, in test [1], the “Coupled exchange IC50 (2 h)” value is 101 nM. Besides, the IC50 was 657 nM in test [2] (setting [4]), 552 nM in test [2] (setting [5]), no less than 100000 nM in test [3] (setting [6]) and 65000 nM in test [3] (setting [7]).
As to `C=CC(=O)N1CCN(c2nc(=O)n(-c3nccnc3C3CC3)c3nc(-c4c(O)cccc4F)c(Cl)cc23)[C@@H](C)C1` [Example 60-8, 6-chloro-1-(3-cyclopropyl-2-pyrazinyl)-7-(2-fluoro-6-hydroxyphenyl)-4-((2S)-2-methyl-4-(2-propenoyl)-1-piperazinyl)pyrido[2,3-d]pyrimidin-2(1H)-one], in test [1] (5 min compound pre-incubation), the “Coupled exchange IC50 (5 min)” value is listed as 0.173 | nda μM. Further, the IC50 is 72 nM in test [2] (setting [4]) and no less than 10000 nM in test [3] (setting [6]).
Regarding `C=CC(=O)N1CCN(c2nc(=O)n(-c3ccccc3C(C)C)c3cc(Br)c(Cl)cc23)[C@@H](C)C1` (single isomer, unassigned) [Example 9-17-2], the “Coupled exchange IC50 (5 min)” value in test [1] (5 min compound pre-incubation) came out at 1.66 µM. Further, the “Coupled exchange IC50 (2 h)” value in test [1] amounted to 163 nM. The IC50 is 1060 nM in test [2] (setting [4]); 859 nM in test [2] (read-out: p-ERK IC50 (4 h; MIA PaCa-2), 4 h compound treatment); no less than 10000 nM in test [3] (setting [6]); no less than 100000 nM in test [3] (setting [7]).
Consider `C=CC(=O)N1CCN(c2nc(=O)n(C(CC)CC)c3nc(Cl)c(Cl)cc23)[C@@H](C)C1` [Example 54-3, 6,7-dichloro-4-((2S)-2-methyl-4-(2-propenoyl)-1-piperazinyl)-1-(3-pentanyl) pyrido[2,3-d]pyrimidin-2(1H)-one], for which, in test [1], the “Coupled exchange IC50 (2 h)” value was “nda | 0.781 μM”. Also, the figures for the IC50 in test [2] (setting [5]) and in test [3] (setting [7]) were 8580 nM and no less than 100000 nM, respectively.
As to `C=CC(=O)N1CCN(c2nc(=O)n(-c3c(CC)cccc3CC)c3nc(-c4c(F)cccc4F)c(Cl)cc23)[C@@H](C)C1` [Example 54-65, 6-chloro-1-(2,6-diethylphenyl)-7-(2,6-difluorophenyl)-4-((2S)-2-methyl-4-(2-propenoyl)-1-piperazinyl) pyrido[2,3-d]pyrimidin-2(1H)-one], the “Coupled exchange IC50 (5 min)” value in test [1] (5 min compound pre-incubation) was determined as 0.253 µM. The “Coupled exchange IC50 (2 h)” value in test [1] was determined as 54 nM. In addition, the IC50 was 140 nM in test [2] (setting [4]), 133 nM in test [2] (setting [5]), no less than 10000 nM in test [3] (setting [6]) and no less than 100000 nM in test [3] (setting [7]).
Regarding `C=CC(=O)N1CCN(c2nc(=O)n(-c3ccccc3CC)c3nc(-c4ccccc4F)c(Cl)cc23)[C@@H](C)C1` [Example 54-31, 6-chloro-1-(2-ethylphenyl)-7-(2-fluorophenyl)-4-((2S)-2-methyl-4-(2-propenoyl)-1-piperazinyl) pyrido[2,3-d]pyrimidin-2(1H)-one], in test [1] (5 min compound pre-incubation), the “Coupled exchange IC50 (5 min)” value is reported as 0.395 | nda μM. Moreover, the IC50 in test [2] (setting [4]) was 237 nM; in test [3] (setting [6]) it was no less than 10000 nM.
In the case of `C=CC(=O)N1CCN(c2nc(=O)n(-c3c(CC)cccc3CC)c3nc(-c4ccccc4)c(Cl)cc23)[C@@H](C)C1` [Example 54-62, 6-chloro-1-(2,6-diethylphenyl)-4-((2S)-2-methyl-4-(2-propenoyl)-1-piperazinyl)-7-phenyl-pyrido[2,3-d]pyrimidin-2(1H)-one], the “Coupled exchange IC50 (5 min)” value in test [1] (5 min compound pre-incubation) was determined as 0.808 µM. Moreover, the “Coupled exchange IC50 (2 h)” value in test [1] was found to be 172 nM. Further, the IC50 in test [2] (setting [4]) was 407 nM; in test [2] (setting [5]), 223 nM; in test [3] (setting [6]), no less than 10000 nM; in test [3] (setting [7]), no less than 100000 nM.
Turning to `C=CC(=O)N1CCN(c2nc(=O)n(-c3c(CC)cccc3CC)c3nc(-c4ccccc4O)c(Cl)cc23)[C@@H](C)C1` [Example 54-63, 6-chloro-1-(2,6-diethylphenyl)-7-(2-hydroxyphenyl)-4-((2S)-2-methyl-4-(2-propenoyl)-1-piperazinyl) pyrido[2,3-d]pyrimidin-2(1H)-one], the “Coupled exchange IC50 (5 min)” value in test [1] (5 min compound pre-incubation) was 0.845 µM. The “Coupled exchange IC50 (2 h)” value in test [1] came to 164 nM. In addition, the IC50 is 291 nM in test [2] (setting [4]), 136 nM in test [2] (setting [5]) and no less than 33300 nM in test [3] (setting [7]).
In the case of `C=CC(=O)N1CCN(c2nc(=O)n(-c3cccnc3C(C)C)c3nc(-c4c(O)cccc4F)c(Cl)cc23)[C@@H](C)C1` [Example 54-11, 6-chloro-7-(2-fluoro-6-hydroxyphenyl)-4-((2S)-2-methyl-4-(2-propenoyl)-1-piperazinyl)-1-(2-(2-propanyl)-3-pyridinyl) pyrido[2,3-d]pyrimidin-2(1H)-one], the “Coupled exchange IC50 (5 min)” value in test [1] (5 min compound pre-incubation) is given as 0.069 | nda μM. The IC50 in test [2] (setting [4]) was 63 nM; in test [3] (setting [6]), no less than 10000 nM.
In the same order, the values of `C=CC(=O)N1CCN(c2nc(=O)n(-c3c(C)ncnc3C(C)C)c3nc(-c4ccccc4F)c(Cl)cc23)[C@@H](C)C1` (single isomer, unassigned) [Example 55-13-2] are 0.02 | nda μM, 55 nM and no less than 10000 nM.
The like results for `C=CC(=O)N1CCN(c2nc(=O)n(-c3c(C)ccnc3C(C)C)c3nc(-c4ccccc4F)c(Cl)nc23)[C@@H](C)C1` (single isomer, unassigned) [Example 111-1] were, in that order, 0.076 | nda μM, 102 nM and no less than 10000 nM.
In the same order, the values of `C=CC(=O)N1CCN(c2nc(=O)n(-c3ccccc3C(C)C)c3nc(N4CCCCC4)c(Cl)cc23)[C@@H](C)C1` (single isomer, unassigned) [Example 69-1-2] are 0.604 | nda μM, 1020 nM and no less than 10000 nM.
As to `C=CC(=O)N1CCN(c2nc(=O)n(-c3c(C)cccc3C)c3nc(-c4c(O)cccc4F)c(Cl)cc23)[C@@H](C)C1` [Example 54-69, 6-chloro-1-(2,6-dimethylphenyl)-7-(2-fluoro-6-hydroxyphenyl)-4-((2S)-2-methyl-4-(2-propenoyl)-1-piperazinyl) pyrido[2,3-d]pyrimidin-2(1H)-one], the IC50 in test [1] (read-out: Coupled exchange IC50 (5 min), 5 min compound pre-incubation) was 306 nM; in test [2] (setting [4]), 199 nM; in test [3] (setting [6]) it was no less than 10000 nM.
Regarding `C=CC(=O)N1CCN(c2nc(=O)n(-c3ccccc3C(C)C)c3c(C)c(-c4c(O)cccc4F)c(Cl)cc23)[C@@H](C)C1` (single isomer, unassigned) [Example 90-1], the IC50 in test [2] (setting [5]) is 221 nM; in test [3] (setting [7]), no less than 33300 nM.
For `C=CC(=O)N1CCN(c2nc(=O)n(-c3ccccc3C(C)C)c3nc(-c4ccccc4F)c(Cl)cc23)[C@@H](C)C1` (single isomer, unassigned) [Example 54-86-1], the IC50 was 670 nM in test [2] (read-out: p-ERK IC50 (2 h; MIA PaCa-2), 2 h compound treatment) and no less than 10000 nM in test [3] (setting [6]).
Regarding `C=CC(=O)N1CCN(c2nc(=O)n(-c3ccccc3C(C)C)c3nc(-c4ccc(F)cc4F)c(Cl)cc23)[C@@H](C)C1` [Example 54-85, 6-chloro-7-(2,4-difluorophenyl)-4-((2S)-2-methyl-4-(2-propenoyl)-1-piperazinyl)-1-(2-(2-propanyl)phenyl)pyrido [2,3-d]pyrimidin-2(1H)-one], the values for the IC50 in test [2] (setting [4]) and in test [3] (setting [6]) were 160 nM and no less than 100000 nM, respectively.
For the molecule `C=CC(=O)N1CCN(c2nc(=O)n(CC(C)(C)C)c3cc(-c4c(O)cccc4F)c(Cl)cc23)CC1` [Example 89, 6-Chloro-1-(2,2-dimethylpropyl)-7-(2-fluoro-6-hydroxyphenyl)-4-(4-(2-propenoyl)-1-piperazinyl)-2(1H)-quinazolinone], the IC50 in test [2] (setting [4]) was 687 nM; in test [2] (setting [5]), 294 nM; in test [3] (setting [6]) it was no less than 10000 nM; in test [3] (setting [7]) it was no less than 11100 nM.
In the case of `C=CC(=O)N1CCN(c2nc(=O)n(-c3ccccc3C(C)C)c3cc(-c4ccccc4F)c(Cl)cc23)CC1` [Example 88, 6-Chloro-7-(2-fluorophenyl)-1-(2-(2-propanyl)phenyl)-4-(4-(2-propenoyl)-1-piperazinyl)-2(1H)-quinazolinone], the IC50 was found to be 232 nM in test [2] (setting [4]), 243 nM in test [2] (setting [5]) and 89400 nM in test [3] (setting [7]).
